Measured values from patent US12569495B2, “Inhibitors of porcine reproductive and respiratory syndrome virus” (UNIVERSITY OF CONNECTICUT, priority 2020, dated 2026).

Assays:
[1] = system: porcine alveolar macrophages (PAMs); assay: MTT cytotoxicity assay in PAMs; format: cell-based, pig
Experimental: (§1) The cytotoxicity of selected screening compounds was determined in porcine alveolar macrophages (PAMs) the principal host cell of productive PRRSV infection. Briefly, various concentrations of the compounds were added to PAMs seeded in 24-well plates and incubated for 24 h. Then 50 μl of the MTT assay labeling reagent (In Vitro Toxicology Assay Kit, MTT based, Sigma-Aldrich) were added to each well and incubated for 4 h before 500 μl of the solubilization solution was added into each well to fully dissolve the formazan crystal by overnight incubation. The absorbance of samples was measured using a spectrophotometry microplate reader at 600 nm. PAMs treated with DMSO served as the controls.

[2] = MTT cytotoxicity assay in PAMs; format: cell-based, pig; conditions: pig, porcine alveolar macrophages (PAMs), 24 h incubation, read-out: LC50, MTT assay
Experimental: as §1

SMILES: Cc1cc(F)ccc1S(=O)(=O)Nc1nc2ccccc2nc1Nc1cccc(S(=O)(=O)N2CCOCC2)c1 [Compound B7, 4-fluoro-2-methyl-N-[3-(3-morpholin-4-ylsulfonylanilino)quinoxalin-2-yl]benzenesulfonamide]
- concentrations well-tolerated by PAMs (MTT assay) ([1]; 24 h): below 25 μM
- IC50 ([1]; Sus scrofa, Macrophage, 24 h incubation, read-out: IC50, cell viability in MTT assay): 81.7 µM
- CC50 at 24 h [2]: 81.7 µM
